System: bovine corneas
Experiment: BCOP (Bovine Corneal Opacity and Permeability) assay of ocular irritancy
Experimental: A BCOP (Bovine Corneal Opacity and Permeability) assay was carried out on polyhydantoin quat compounds of the invention using a test system developed by Gautheron et al.L, "Bovine Corneal Opacity and Permeability Test: An in Vitro Assay of Ocular Irritancy" Fundamental and Applied Toxicology, 18: 442-449 (1992). The system measures two important properties which are predictive of irritation: corneal opacity and permeability. The following classification system for in vitro scores was used:
from 25.1 to 55=moderate irritant
from 55.1 and above=severe irritant
Two polyhydantoin quaternary compounds, having formulas IV and V, were tested using known antimicrobial compositions, ethanol and a didecyl dimethyl ammonium chloride (Bardac 2250, Lonza Inc., Fair Lawn, N.J.), as controls. The test samples were prepared as 0.1% active solutions in distilled water.
In this test, bovine corneas (from slaughterhouse animals) were mounted between two tissue culture media reservoirs in holders which function both as treatment chambers and as cuvettes for subsequent direct measurement of corneal opacity. […]
After completion of the incubation period, the resultant damage was assessed both by quantitative measurement of opacity change, and by indirect measurement of corneal cell damage as evidenced by increased passage of fluorescein.

## CCO [Ethanol, ethanol]
  BCOP SCORE: 68.7
